The data set can be described thus: Partition coefficient (logP). The format is physicochemical. Conditions: octanol/water.
With `CN(C)c1ccc(-c2cc(-c3ccccc3)[s+]c(-c3ccc(N(C)C)cc3)c2)cc1`, the logP (in general, a log measure of how a compound divides between an organic and an aqueous phase) worked out at 2.5.

Consider `CN(C)c1ccc(-c2cc(-c3ccccc3)[se+]c(-c3ccc(N)cc3)c2)cc1`, for which the logP was determined as 0.8.

On to `CN(C)c1ccc(-c2cc(-c3ccccc3)[te+]c(-c3ccc(N)cc3)c2)cc1`, for which the logP is 0.5.

Turning to `CN(C)c1ccc(-c2cc(-c3ccccc3)[s+]c(-c3ccc(N)cc3)c2)cc1`, the logP is 0.

Compound `CN(C)c1ccc(-c2cc(-c3ccccc3)[se+]c(-c3ccc(N(C)C)cc3)c2)cc1` had a logP of 2.4.

In the case of `CN(C)c1ccc(-c2cc(-c3ccccc3)[te+]c(-c3ccc(N(C)C)cc3)c2)cc1`, the logP stood at 2.5.
